Patent US20030129255A1, “Colloidal silver suspension for treating skin problems in tropical and decorative fish” (priority 2002, published 2003)

Test system: nitrifying bacteria
Method: In accordance with the present invention, a method of treating skin problems in fish comprises adding a teaspoon (5 ml) of a suspension of colloidal silver in which the concentration of silver ranges between 6 ppm and 12 ppm (parts per million) to 10 gallons of water in an aquarium every other day and then changing 50% of the water once a week, so that the water to which the fish to be treated are exposed has a silver concentration initially in the range of 0.77 ppb to 1.5 ppb (parts per billion).

colloidal silver
survival of nitrifying bacteria: some nitrifying bacteria can survive this treatment
